Biological target: PI3Kβ (Homo sapiens (Human), UniProt P42338)
Test: In vitro enzyme inhibition assay (Kinase Glo based enzyme activity assay)
Type: biochemical
Conditions: Test (a), human recombinant enzyme; read-out: PI3Kβ inhibition, IC50
Protocol: (a) In Vitro Enzyme Inhibition Assay
The inhibition of PI3Kβ, PI3Kα, PI3Kγ and PI3Kδ was evaluated in a Kinase Glo based enzyme activity assay using human recombinant enzymes. The assay measures depletion of ATP after incubation with enzyme, PIP2 and ATP plus compound. ATP at the end of the reaction is detected by addition of Kinase Glo reagent, in this the Ultra Glo™ luciferase (Promega) uses the ATP as a substrate to catalyze the mono-oxygenation of luciferin and the generation of light. A direct relationship exists between the luminescence measured with the Kinase-Glo Plus Reagent and the amount of ATP remaining in a completed kinase reaction and luminescence is inversely related to kinase activity. Twelve different compound concentrations were tested and raw data from the inhibition of PI3 Kb, PI3Kα, PI3Kγ and PI3Kδ was plotted versus inhibitor concentration.
Compounds in 100% DMSO were added to assay plates by acoustic dispensing. PI3Kβ was added in a Tris buffer (50 mM Tris pH7.4, 0.05% CHAPS, 2.1 mM DTT, and 10 mM MgCl2) and allowed to preincubate with compound for 20 minutes prior to addition of substrate solution containing PIP2 and ATP. The enzyme reaction was stopped after 80 minutes by the addition of Kinase Glo detection solution. Plates were left for 30 minutes at room temperature then read on a Pherastar Instrument (Luminescence ATP 384 program) setting gain on max well. The final concentration of DMSO, ATP and PIP2 in the assay were, 1%, 80 μM, and 80 μM respectively.
IC50 values were calculated using a log curve fitting to a non-linear regression package, fitting raw data to inhibitor concentration.

Chain of PI3Kβ (P42338 whole entry): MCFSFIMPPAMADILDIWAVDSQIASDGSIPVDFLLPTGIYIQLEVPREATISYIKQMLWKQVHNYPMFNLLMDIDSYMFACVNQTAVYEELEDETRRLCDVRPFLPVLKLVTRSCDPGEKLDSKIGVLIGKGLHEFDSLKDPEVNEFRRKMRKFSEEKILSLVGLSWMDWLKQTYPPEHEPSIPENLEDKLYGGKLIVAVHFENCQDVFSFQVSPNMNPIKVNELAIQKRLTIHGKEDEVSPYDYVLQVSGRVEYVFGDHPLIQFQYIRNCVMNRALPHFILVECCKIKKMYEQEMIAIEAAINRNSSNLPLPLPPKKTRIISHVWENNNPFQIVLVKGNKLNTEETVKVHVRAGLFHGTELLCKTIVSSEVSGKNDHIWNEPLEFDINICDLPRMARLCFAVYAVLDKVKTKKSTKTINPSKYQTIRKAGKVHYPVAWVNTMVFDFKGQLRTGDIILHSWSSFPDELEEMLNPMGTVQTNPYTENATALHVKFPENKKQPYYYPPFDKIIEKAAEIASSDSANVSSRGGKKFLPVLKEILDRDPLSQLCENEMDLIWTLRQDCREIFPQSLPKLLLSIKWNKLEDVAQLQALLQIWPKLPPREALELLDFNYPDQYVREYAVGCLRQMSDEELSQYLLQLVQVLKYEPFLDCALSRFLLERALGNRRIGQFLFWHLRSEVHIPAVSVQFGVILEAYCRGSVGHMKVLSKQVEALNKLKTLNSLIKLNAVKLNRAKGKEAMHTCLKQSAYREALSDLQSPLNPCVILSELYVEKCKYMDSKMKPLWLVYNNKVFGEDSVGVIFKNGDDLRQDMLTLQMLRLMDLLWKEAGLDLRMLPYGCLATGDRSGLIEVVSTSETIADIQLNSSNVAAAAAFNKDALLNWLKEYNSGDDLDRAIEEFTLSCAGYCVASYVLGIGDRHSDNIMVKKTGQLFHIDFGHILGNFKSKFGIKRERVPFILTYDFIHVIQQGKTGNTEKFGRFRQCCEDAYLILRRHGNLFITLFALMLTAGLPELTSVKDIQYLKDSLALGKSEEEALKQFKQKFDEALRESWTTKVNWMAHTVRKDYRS
Chain of PI3Kβ (P27986 whole entry partner): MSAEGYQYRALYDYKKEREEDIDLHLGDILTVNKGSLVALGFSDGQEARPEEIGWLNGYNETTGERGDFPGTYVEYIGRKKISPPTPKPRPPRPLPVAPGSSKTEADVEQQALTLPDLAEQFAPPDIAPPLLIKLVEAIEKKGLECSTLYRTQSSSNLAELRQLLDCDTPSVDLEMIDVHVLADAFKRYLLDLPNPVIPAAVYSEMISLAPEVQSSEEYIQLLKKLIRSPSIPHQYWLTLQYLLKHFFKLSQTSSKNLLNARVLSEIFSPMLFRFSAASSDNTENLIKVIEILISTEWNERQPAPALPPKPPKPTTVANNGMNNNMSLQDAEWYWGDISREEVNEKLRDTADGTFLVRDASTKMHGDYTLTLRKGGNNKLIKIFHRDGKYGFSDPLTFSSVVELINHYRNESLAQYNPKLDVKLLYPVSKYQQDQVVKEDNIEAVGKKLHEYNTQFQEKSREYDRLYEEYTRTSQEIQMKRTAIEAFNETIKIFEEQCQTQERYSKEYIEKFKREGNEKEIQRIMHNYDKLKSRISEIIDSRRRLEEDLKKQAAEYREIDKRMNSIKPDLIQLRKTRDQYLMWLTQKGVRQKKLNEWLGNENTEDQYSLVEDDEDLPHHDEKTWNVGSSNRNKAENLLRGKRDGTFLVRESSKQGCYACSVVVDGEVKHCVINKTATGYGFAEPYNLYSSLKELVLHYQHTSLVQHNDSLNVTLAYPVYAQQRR

| Compound | IC50 [nM] |
| --- | --- |
| CC(c1cc(C(=O)N2CCC(O)CC2)cc2c(=O)cc(N3CCOCC3)oc12)N(C)c1cc(F)cc(F)c1 (stereo not shown) [Example 5.01, 8-(1-((3,5-difluorophenyl)(methyl)amino)ethyl)-6-(4-hydroxypiperidine-1-carbonyl)-2-morpholino-4H-chromen-4-one] | 8 |
| CC(c1cc(C(=O)N(C)C)cc2c(=O)cc(N3CCO[C@H](C)C3)oc12)N(C)c1cc(F)cc(F)c1 (stereo partly drawn) [Example 10.01, 8-(1-((3,5-difluorophenyl)(methyl)amino)ethyl)-N,N-dimethyl-2-((R)-2-methylmorpholino)-4-oxo-4H-chromene-6-carboxamide] | 12 |
| Cc1cc(C#N)cc(NC(C)c2cc(C(=O)N(C)C)cc3c(=O)cc(N4CCOCC4)oc23)c1 (stereo not shown) [Example 3.23, 8-(1-(3-cyano-5-methylphenylamino)ethyl)-N,N-dimethyl-2-morpholino-4-oxo-4H-chromene-6-carboxamide] | 13 |
| CC(Nc1c(F)ccc(Cl)c1F)c1cc(C(=O)N(C)C)cc2c(=O)cc(N3CCOCC3)oc12 (stereo not shown) [Example 3.32, 8-(1-(3-chloro-2,6-difluorophenylamino)ethyl)-N,N-dimethyl-2-morpholino-4-oxo-4H-chromene-6-carboxamide] | 8 |
| CC(c1cc(C(=O)N(C)C)cc2c(=O)cc(N3CCOCC3)oc12)N(C)c1cc(F)cc(F)c1F (stereo not shown) [Example 3.39, N,N-dimethyl-8-(1-(methyl(2,3,5-trifluorophenyl)amino)ethyl)-2-morpholino-4-oxo-4H-chromene-6-carboxamide] | 21 |
| CC(Nc1cc(F)cc(F)c1)c1cc(C(=O)N(C)C)cc2c(=O)cc(N3CCO[C@H](C)C3)oc12 (single isomer, unassigned) [Example 9.01a] | 17900 |
| CC(c1cc(C(=O)N(C)CCO)cc2c(=O)cc(N3CCO[C@H](C)C3)oc12)N(C)c1cc(F)cc(F)c1 (stereo partly drawn) [Example 10.02, 8-(1-((3,5-difluorophenyl)(methyl)amino)ethyl)-N-(2-hydroxyethyl)-N-methyl-2-((R)-2-methylmorpholino)-4-oxo-4H-chromene-6-carboxamide] | 11 |
| COc1ccc(C#N)cc1NC(C)c1cc(C(=O)N(C)C)cc2c(=O)cc(N3CCOCC3)oc12 (stereo not shown) [Example 3.25, 8-(1-(5-cyano-2-methoxyphenylamino)ethyl)-N,N-dimethyl-2-morpholino-4-oxo-4H-chromene-6-carboxamide] | 212 |
| CC(Nc1cc(F)cc(F)c1)c1cc(C(=O)N(C)C)cc2c(=O)cc(N3CCO[C@H](C)C3)oc12 (single isomer, unassigned) [Example 9.01b] | 3 |
| CC(Nc1cc(F)cc(F)c1)c1cc(C(=O)N2CCOCC2)cc2c(=O)cc(N3CCOCC3)oc12 (stereo not shown) [Example 2.07, 8-(1-(3,5-difluorophenylamino)ethyl)-6-(morpholine-4-carbonyl)-2-morpholino-4H-chromen-4-one] | 5 |
| CC(Nc1ccc(F)c(F)c1)c1cc(C(=O)N(C)C)cc2c(=O)cc(N3CCOCC3)oc12 (single isomer, unassigned) [Example 3.03a, 8-(1-(3,4-difluorophenylamino)ethyl)-N,N-dimethyl-2-morpholino-4-oxo-4H-chromene-6-carboxamide] | 649 |
| CC(Nc1cc(F)ccc1C#N)c1cc(C(=O)N(C)C)cc2c(=O)cc(N3CCOCC3)oc12 (stereo not shown) [Example 3.35, 8-(1-(2-cyano-5-fluorophenylamino)ethyl)-N,N-dimethyl-2-morpholino-4-oxo-4H-chromene-6-carboxamide] | 31 |
| C#Cc1cc(F)cc(N(C)C(C)c2cc(C(=O)N(C)C)cc3c(=O)cc(N4CCOCC4)oc23)c1 (stereo not shown) [Example 3.41, 8-(1-((3-ethynyl-5-fluorophenyl)(methyl)amino)ethyl)-N,N-dimethyl-2-morpholino-4-oxo-4H-chromene-6-carboxamide] | 14 |
| CC(Nc1ccc(F)cc1)c1cc(C(=O)N(C)C)cc2c(=O)cc(N3CCO[C@H](C)C3)oc12 (stereo partly drawn) [Example 9.0, 8-(1-(4-fluorophenylamino)ethyl)-N,N-dimethyl-2-((R)-2-methylmorpholino)-4-oxo-4H-chromene-6-carboxamide] | 5 |
| CC(c1cc(C(=O)N(C)C)cc2c(=O)cc(N3CCOCC3)oc12)N(C)c1ccccc1 (stereo not shown) [Example 3.40, N,N-dimethyl-8-(1-(methyl(phenyl)amino)ethyl)-2-morpholino-4-oxo-4H-chromene-6-carboxamide] | 43 |
| CC(c1cc(C(=O)N2CCC(O)CC2)cc2c(=O)cc(N3CCOCC3)oc12)N(C)c1cc(F)cc(F)c1 (single isomer, unassigned) [Example 7.01b, 8-(1-((3,5-difluorophenyl)(methyl)amino)ethyl)-6-(4-hydroxypiperidine-1-carbonyl)-2-morpholino-4H-chromen-4-one] | 4320 |
| CC(Nc1cc(F)ccc1F)c1cc(C(=O)N(C)C)cc2c(=O)cc(N3CCOCC3)oc12 (stereo not shown) [Example 3.15, 8-(1-(2,5-difluorophenylamino)ethyl)-N,N-dimethyl-2-morpholino-4-oxo-4H-chromene-6-carboxamide] | 10 |

Other lines, results leading:

| IC50 [nM] | Compound |
| --- | --- |
| 6 | COc1ccc(F)cc1NC(C)c1cc(C(=O)N(C)C)cc2c(=O)cc(N3CCOCC3)oc12 (stereo not shown) [Example 3.24, 8-(1-(5-fluoro-2-methoxyphenylamino)ethyl)-N,N-dimethyl-2-morpholino-4-oxo-4H-chromene-6-carboxamide] |
| 5 | Cc1cc(F)cc(NC(C)c2cc(C(=O)N(C)C)cc3c(=O)cc(N4CCOCC4)oc23)c1 (stereo not shown) [Example 3.16, 8-(1-(3-fluoro-5-methylphenylamino)ethyl)-N,N-dimethyl-2-morpholino-4-oxo-4H-chromene-6-carboxamide] |
| 4 | CCN(CC)C(=O)c1cc(C(C)Nc2cc(F)cc(F)c2)c2oc(N3CCOCC3)cc(=O)c2c1 (stereo not shown) [Example 4.01, 8-(1-(3,5-difluorophenylamino)ethyl)-N,N-diethyl-2-morpholino-4-oxo-4H-chromene-6-carboxamide] |
| 4 | Cc1ccc(Cl)cc1NC(C)c1cc(C(=O)N(C)C)cc2c(=O)cc(N3CCOCC3)oc12 (stereo not shown) [Example 3.28, 8-(1-(5-chloro-2-methylphenylamino)ethyl)-N,N-dimethyl-2-morpholino-4-oxo-4H-chromene-6-carboxamide] |
| 5 | C#Cc1cccc(NC(C)c2cc(C(=O)N(C)C)cc3c(=O)cc(N4CCOCC4)oc23)c1 (stereo not shown) [Example 3.20, 8-(1-(3-ethynylphenylamino)ethyl)-N,N-dimethyl-2-morpholino-4-oxo-4H-chromene-6-carboxamide] |
| 3 | CC(Nc1ccc(F)c(F)c1)c1cc(C(=O)N(C)C)cc2c(=O)cc(N3CCOCC3)oc12 (single isomer, unassigned) [Example 3.03b, 8-(1-(3,4-difluorophenylamino)ethyl)-N,N-dimethyl-2-morpholino-4-oxo-4H-chromene-6-carboxamide] |
| 5 | CC(c1cc(C(=O)N2CCCC2)cc2c(=O)cc(N3CCOCC3)oc12)N(C)c1cc(F)cc(F)c1 (stereo not shown) [Example 6.0, 8-(1-((3,5-difluorophenyl)(methyl)amino)ethyl)-2-morpholino-6-(pyrrolidine-1-carbonyl)-4H-chromen-4-one] |
| 4 | CC(Nc1cc(F)cc(F)c1)c1cc(C(=O)N2CC(O)C2)cc2c(=O)cc(N3CCOCC3)oc12 (stereo not shown) [Example 4.12, 8-(1-(3,5-difluorophenylamino)ethyl)-6-(3-hydroxyazetidine-1-carbonyl)-2-morpholino-4H-chromen-4-one] |
| 5 | CC(Nc1cc(F)cc(F)c1)c1cc(C(=O)N2CCCCC2)cc2c(=O)cc(N3CCOCC3)oc12 (stereo not shown) [Example 4.10, 8-(1-(3,5-difluorophenylamino)ethyl)-2-morpholino-6-(piperidine-1-carbonyl)-4H-chromen-4-one] |
| 4 | CC(Nc1cc(F)cc(F)c1)c1cc(C(=O)NCCF)cc2c(=O)cc(N3CCOCC3)oc12 (stereo not shown) [Example 4.18, 8-(1-(3,5-difluorophenylamino)ethyl)-N-(2-fluoroethyl)-2-morpholino-4-oxo-4H-chromene-6-carboxamide] |
| 8 | CC(c1cc(C(=O)N2CCC(O)CC2)cc2c(=O)cc(N3CCOCC3)oc12)N(C)c1cc(F)cc(F)c1 (single isomer, unassigned) [Example 7.01a, 8-(1-((3,5-difluorophenyl)(methyl)amino)ethyl)-6-(4-hydroxypiperidine-1-carbonyl)-2-morpholino-4H-chromen-4-one] |
| 7 | CC(Nc1ccc(F)cc1)c1cc(C(=O)N(C)CCN(C)C)cc2c(=O)cc(N3CCOCC3)oc12 (stereo not shown) [Example 2.02, N-(2-(dimethylamino)ethyl)-8-(1-(4-fluorophenylamino)ethyl)-N-methyl-2-morpholino-4-oxo-4H-chromene-6-carboxamide] |
| 3 | CC(Nc1cccc(Cl)c1F)c1cc(C(=O)N(C)C)cc2c(=O)cc(N3CCOCC3)oc12 (single isomer, unassigned) [Example 3.04b, 8-(1-(3-chloro-2-fluorophenylamino)ethyl)-N,N-dimethyl-2-morpholino-4-oxo-4H-chromene-6-carboxamide] |
| 4 | COC1CCN(C(=O)c2cc(C(C)Nc3cc(F)cc(F)c3)c3oc(N4CCOCC4)cc(=O)c3c2)CC1 (stereo not shown) [Example 4.26, 8-(1-(3,5-difluorophenylamino)ethyl)-6-(4-methoxypiperidine-1-carbonyl)-2-morpholino-4H-chromen-4-one] |
